The values below come from patent US8729073B2, “5-methyl-1-(naphthalen-2-yl)-1H-pyrazole derivatives and their use in potentiating the effect of opioid analgesics” (Laboratorios Del Dr. Esteve, S.A., priority 2010, dated 2014).

Assay [1] relates to capsaicin-induced neuropathic pain. The assay can be described thus: Effect on capsaicin in development of mechanical allodynia (von Frey filaments). The format is in vivo. The settings on record: mice, test compound given before 1 μg capsaicin (1% DMSO) injected into paw, FIG. 2. The protocol: Effect on Capsaicin in Development of Mechanical Allodynia
This model uses the von-Frey Filaments and is a model to test the effects or symptoms of neuropathic pain, allodynia etc.
Interest of the model: • The injection of 1 μg of capsaicin to experimental animals produces acute pain followed by hyperalgesia/allodynia • The mechanisms involved in capsaicin-induced acute pain and hyperalgesia are relatively well known (mainly activation of peripheral nociceptors and sensitization of spinal cord neurons, respectively)
After habituation mice were according to FIG. 1 first treated with the test-compound (or solvent in controls). Then 1 μg capsaicin (1% DMSO) is injected into their paw resulting in developing pain in the effected paw. The effected paw is then treated with a mechanical stimulus and the latency time before the paw is withdrawn is measured.

The test system of a further assay is morphine analgesia. The experiment in a line: Tail-flick test in mice, modulation of morphine analgesia. The assay is classed as in vivo. The settings on record: male CD1 mice; Example n^o 1 5-20 mg/kg i.p. coadministered with fixed dose of morphine 2 mg/kg s.c.; 30 min post-administration; FIG. 3. (In general: In hot-plate and tail-flick tests a longer latency is read as antinociception.)

SMILES strings stand for the structures. Entries after “also recorded” stand apart in the source; their conditions may differ.

As to `Cc1cc(OCCN2CCOCC2=O)nn1-c1ccc2ccccc2c1` [Example n^o 1, 4-(2-(5-methyl-1-(naphthalen-2-yl)-1H-pyrazol-3-yloxy)ethyl)morpholin-3-one], the “analgesia in capsaicin-induced neuropathic pain (latency time before the paw is withdrawn, mechanical stimulus)” value in assay [1] is “dose dependency of the treatment with the compound of example 1 showing analgesia in capsaicin-induced neuropathic pain”. Besides, in the assay on morphine analgesia, the “potentiation of morphine analgesia (% Analgesia, tail-flick latency)” value is given as “enhances the analgesic effect of a fixed dose of morphine; also recorded: dose-dependently increased the analgesic efficacy of morphine”.
